Results from the supplement of paper PMC10307832.

Columns and labels:
Experiment in all cases: relative viability (nuclei count vs DMSO), 5 days (fraction); higher = more cells survive
Salubrinal + Decitabine = compound: O=C(/C=C/c1ccccc1)NC(NC(=S)Nc1cccc2cccnc12)C(Cl)(Cl)Cl [Salubrinal] + Nc1ncn([C@H]2C[C@H](O)[C@@H](CO)O2)c(=O)n1 [Decitabine] (partner 2 µM)
In short: (§1)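 Medians of duplicate plates are given as relative viability. That measure is the nuclei count in treated wells divided by the count in vehicle wells. Counts were taken on 4× images of lung cancer cell lines in 1536-well plates, 5 days after pin-tool dosing the day after seeding with one drug alone or a fixed anchor-drug dose plus five library-drug doses (not always all listed) in √10 steps.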

[1] = compound: Cc1ccc2nc(NCCN)c3ncc(C)n3c2c1 + CCNC(=O)c1noc(-c2cc(C(C)C)c(O)cc2O)c1-c1ccc(CN2CCOCC2)cc1 [Luminespib] (partner 0.01 µM)
In short: as §1

Salubrinal + Trametinib = compound: O=C(/C=C/c1ccccc1)NC(NC(=S)Nc1cccc2cccnc12)C(Cl)(Cl)Cl [Salubrinal] + CC(=O)Nc1cccc(-n2c(=O)n(C3CC3)c(=O)c3c(Nc4ccc(I)cc4F)n(C)c(=O)c(C)c32)c1 [Trametinib] (partner 0.02 µM)
In short: as §1

Salubrinal + Linsitinib = compound: O=C(/C=C/c1ccccc1)NC(NC(=S)Nc1cccc2cccnc12)C(Cl)(Cl)Cl [Salubrinal] + C[C@]1(O)C[C@@H](c2nc(-c3ccc4ccc(-c5ccccc5)nc4c3)c3c(N)nccn32)C1 [Linsitinib] (partner 1 µM)
In short: as §1

NCI-H2347
relative viability (Salubrinal + Decitabine; first compound 0.08 µM): 0.598
relative viability (Salubrinal + Decitabine; first compound 0.253 µM): 0.571
relative viability (Salubrinal + Decitabine; first compound 0.8 µM): 0.663
relative viability (Salubrinal + Decitabine; first compound 2.53 µM): 0.649
relative viability (Salubrinal + Decitabine; first compound 8 µM): 0.661
relative viability ([1]; first compound 0.04 µM): 1.14
relative viability ([1]; first compound 0.1265 µM): 1.3
relative viability ([1]; first compound 0.4 µM): 0.362
relative viability ([1]; first compound 1.265 µM): 0.248
relative viability ([1]; first compound 4 µM): 0.356
relative viability (Salubrinal + Trametinib; first compound 0.08 µM): 0.279
relative viability (Salubrinal + Trametinib; first compound 0.253 µM): 0.258
relative viability (Salubrinal + Trametinib; first compound 0.8 µM): 0.395
relative viability (Salubrinal + Trametinib; first compound 2.53 µM): 0.262
relative viability (Salubrinal + Trametinib; first compound 8 µM): 0.294
relative viability (Salubrinal + Linsitinib; first compound 0.08 µM): 1.06
relative viability (Salubrinal + Linsitinib; first compound 0.253 µM): 1
relative viability (Salubrinal + Linsitinib; first compound 0.8 µM): 1.06
relative viability (Salubrinal + Linsitinib; first compound 2.53 µM): 1.15
relative viability (Salubrinal + Linsitinib; first compound 8 µM): 0.963

NCI-H2405
relative viability (Salubrinal + Decitabine; first compound 0.08 µM): 0.726
relative viability (Salubrinal + Decitabine; first compound 0.253 µM): 0.726
relative viability (Salubrinal + Decitabine; first compound 0.8 µM): 0.754
relative viability (Salubrinal + Decitabine; first compound 2.53 µM): 0.757
relative viability (Salubrinal + Decitabine; first compound 8 µM): 0.729
relative viability ([1]; first compound 0.04 µM): 0.841
relative viability ([1]; first compound 0.1265 µM): 0.631
relative viability ([1]; first compound 0.4 µM): 0.732
relative viability ([1]; first compound 1.265 µM): 0.563
relative viability ([1]; first compound 4 µM): 0.595
relative viability (Salubrinal + Trametinib; first compound 0.08 µM): 0.653
relative viability (Salubrinal + Trametinib; first compound 0.253 µM): 0.625
relative viability (Salubrinal + Trametinib; first compound 0.8 µM): 0.594
relative viability (Salubrinal + Trametinib; first compound 2.53 µM): 0.605
relative viability (Salubrinal + Trametinib; first compound 8 µM): 0.557
relative viability (Salubrinal + Linsitinib; first compound 0.08 µM): 1.07
relative viability (Salubrinal + Linsitinib; first compound 0.253 µM): 1
relative viability (Salubrinal + Linsitinib; first compound 0.8 µM): 0.861
relative viability (Salubrinal + Linsitinib; first compound 2.53 µM): 0.889
relative viability (Salubrinal + Linsitinib; first compound 8 µM): 0.843

NCI-H3122
relative viability (Salubrinal + Decitabine; first compound 0.08 µM): 0.399
relative viability (Salubrinal + Decitabine; first compound 0.253 µM): 0.443
relative viability (Salubrinal + Decitabine; first compound 0.8 µM): 0.51
relative viability (Salubrinal + Decitabine; first compound 2.53 µM): 0.461
relative viability (Salubrinal + Decitabine; first compound 8 µM): 0.442
relative viability ([1]; first compound 0.04 µM): 0.101
relative viability ([1]; first compound 0.1265 µM): 0.11
relative viability ([1]; first compound 0.4 µM): 0.0776
relative viability ([1]; first compound 1.265 µM): 0.0857
relative viability ([1]; first compound 4 µM): 0.0976
relative viability (Salubrinal + Trametinib; first compound 0.08 µM): 0.259
relative viability (Salubrinal + Trametinib; first compound 0.253 µM): 0.239
relative viability (Salubrinal + Trametinib; first compound 0.8 µM): 0.282
relative viability (Salubrinal + Trametinib; first compound 2.53 µM): 0.226
relative viability (Salubrinal + Trametinib; first compound 8 µM): 0.226
relative viability (Salubrinal + Linsitinib; first compound 0.08 µM): 1.07
relative viability (Salubrinal + Linsitinib; first compound 0.253 µM): 1.06
relative viability (Salubrinal + Linsitinib; first compound 0.8 µM): 0.984
relative viability (Salubrinal + Linsitinib; first compound 2.53 µM): 1.06
relative viability (Salubrinal + Linsitinib; first compound 8 µM): 0.987

PC-3 [JPC-3]
relative viability (Salubrinal + Decitabine; first compound 0.08 µM): 0.848
relative viability (Salubrinal + Decitabine; first compound 0.253 µM): 0.836
relative viability (Salubrinal + Decitabine; first compound 0.8 µM): 0.891
relative viability (Salubrinal + Decitabine; first compound 2.53 µM): 0.848
relative viability (Salubrinal + Decitabine; first compound 8 µM): 0.81
relative viability ([1]; first compound 0.04 µM): 0.733
relative viability ([1]; first compound 0.1265 µM): 0.71
relative viability ([1]; first compound 0.4 µM): 0.672
relative viability ([1]; first compound 1.265 µM): 0.671
relative viability ([1]; first compound 4 µM): 0.628
relative viability (Salubrinal + Trametinib; first compound 0.08 µM): 0.734
relative viability (Salubrinal + Trametinib; first compound 0.253 µM): 0.697
relative viability (Salubrinal + Trametinib; first compound 0.8 µM): 0.65
relative viability (Salubrinal + Trametinib; first compound 2.53 µM): 0.693
relative viability (Salubrinal + Trametinib; first compound 8 µM): 0.651
relative viability (Salubrinal + Linsitinib; first compound 0.08 µM): 0.927
relative viability (Salubrinal + Linsitinib; first compound 0.253 µM): 0.999
relative viability (Salubrinal + Linsitinib; first compound 0.8 µM): 0.982
relative viability (Salubrinal + Linsitinib; first compound 2.53 µM): 0.928
relative viability (Salubrinal + Linsitinib; first compound 8 µM): 0.937

PC-14
relative viability (Salubrinal + Decitabine; first compound 0.08 µM): 0.211
relative viability (Salubrinal + Decitabine; first compound 0.253 µM): 0.228
relative viability (Salubrinal + Decitabine; first compound 0.8 µM): 0.201
relative viability (Salubrinal + Decitabine; first compound 2.53 µM): 0.189
relative viability (Salubrinal + Decitabine; first compound 8 µM): 0.236
relative viability ([1]; first compound 0.04 µM): 0.135
relative viability ([1]; first compound 0.1265 µM): 0.114
relative viability ([1]; first compound 0.4 µM): 0.179
relative viability ([1]; first compound 1.265 µM): 0.151
relative viability ([1]; first compound 4 µM): 0.18
relative viability (Salubrinal + Trametinib; first compound 0.08 µM): 0.695
relative viability (Salubrinal + Trametinib; first compound 0.253 µM): 0.753
relative viability (Salubrinal + Trametinib; first compound 0.8 µM): 0.736
relative viability (Salubrinal + Trametinib; first compound 2.53 µM): 0.588
relative viability (Salubrinal + Trametinib; first compound 8 µM): 0.629
relative viability (Salubrinal + Linsitinib; first compound 0.08 µM): 1.02
relative viability (Salubrinal + Linsitinib; first compound 0.253 µM): 0.899
relative viability (Salubrinal + Linsitinib; first compound 0.8 µM): 1.06
relative viability (Salubrinal + Linsitinib; first compound 2.53 µM): 0.975
relative viability (Salubrinal + Linsitinib; first compound 8 µM): 0.892

RERF-LC-KJ
relative viability (Salubrinal + Decitabine; first compound 0.08 µM): 0.834
relative viability (Salubrinal + Decitabine; first compound 0.253 µM): 0.605
relative viability (Salubrinal + Decitabine; first compound 0.8 µM): 0.792
relative viability (Salubrinal + Decitabine; first compound 2.53 µM): 0.697
relative viability (Salubrinal + Decitabine; first compound 8 µM): 0.598
relative viability ([1]; first compound 0.04 µM): 1.13
relative viability ([1]; first compound 0.1265 µM): 1.14
relative viability ([1]; first compound 0.4 µM): 1.26
relative viability ([1]; first compound 1.265 µM): 1.17
relative viability ([1]; first compound 4 µM): 0.715
relative viability (Salubrinal + Trametinib; first compound 0.08 µM): 0.872
relative viability (Salubrinal + Trametinib; first compound 0.253 µM): 0.867
relative viability (Salubrinal + Trametinib; first compound 0.8 µM): 0.938
relative viability (Salubrinal + Trametinib; first compound 2.53 µM): 0.795
relative viability (Salubrinal + Trametinib; first compound 8 µM): 0.81
relative viability (Salubrinal + Linsitinib; first compound 0.08 µM): 0.896
relative viability (Salubrinal + Linsitinib; first compound 0.253 µM): 0.806
relative viability (Salubrinal + Linsitinib; first compound 0.8 µM): 0.931
relative viability (Salubrinal + Linsitinib; first compound 2.53 µM): 0.791
relative viability (Salubrinal + Linsitinib; first compound 8 µM): 0.846

SK-LU-1
relative viability (Salubrinal + Decitabine; first compound 0.08 µM): 0.609
relative viability (Salubrinal + Decitabine; first compound 0.253 µM): 0.597
relative viability (Salubrinal + Decitabine; first compound 0.8 µM): 0.739
relative viability (Salubrinal + Decitabine; first compound 2.53 µM): 0.685
relative viability (Salubrinal + Decitabine; first compound 8 µM): 0.506
relative viability ([1]; first compound 0.04 µM): 0.225
relative viability ([1]; first compound 0.1265 µM): 0.248
relative viability ([1]; first compound 0.4 µM): 0.191
relative viability ([1]; first compound 1.265 µM): 0.199
relative viability ([1]; first compound 4 µM): 0.212
relative viability (Salubrinal + Trametinib; first compound 0.08 µM): 0.463
relative viability (Salubrinal + Trametinib; first compound 0.253 µM): 0.468
relative viability (Salubrinal + Trametinib; first compound 0.8 µM): 0.561
relative viability (Salubrinal + Trametinib; first compound 2.53 µM): 0.445
relative viability (Salubrinal + Trametinib; first compound 8 µM): 0.447
relative viability (Salubrinal + Linsitinib; first compound 0.08 µM): 1.26
relative viability (Salubrinal + Linsitinib; first compound 0.253 µM): 1.19
relative viability (Salubrinal + Linsitinib; first compound 0.8 µM): 1.37
relative viability (Salubrinal + Linsitinib; first compound 2.53 µM): 1.02
relative viability (Salubrinal + Linsitinib; first compound 8 µM): 1.16

SK-MES-1
relative viability (Salubrinal + Decitabine; first compound 0.08 µM): 0.405
relative viability (Salubrinal + Decitabine; first compound 0.253 µM): 0.359
relative viability (Salubrinal + Decitabine; first compound 0.8 µM): 0.365
relative viability (Salubrinal + Decitabine; first compound 2.53 µM): 0.356
relative viability (Salubrinal + Decitabine; first compound 8 µM): 0.495
relative viability ([1]; first compound 0.04 µM): 0.835
relative viability ([1]; first compound 0.1265 µM): 0.791
relative viability ([1]; first compound 0.4 µM): 0.74
relative viability ([1]; first compound 1.265 µM): 0.772
relative viability ([1]; first compound 4 µM): 0.74
relative viability (Salubrinal + Trametinib; first compound 0.08 µM): 0.634
relative viability (Salubrinal + Trametinib; first compound 0.253 µM): 0.526
relative viability (Salubrinal + Trametinib; first compound 0.8 µM): 0.512
relative viability (Salubrinal + Trametinib; first compound 2.53 µM): 0.561
relative viability (Salubrinal + Trametinib; first compound 8 µM): 0.525
relative viability (Salubrinal + Linsitinib; first compound 0.08 µM): 1.12
relative viability (Salubrinal + Linsitinib; first compound 0.253 µM): 1.04
relative viability (Salubrinal + Linsitinib; first compound 0.8 µM): 1.05
relative viability (Salubrinal + Linsitinib; first compound 2.53 µM): 1.07
relative viability (Salubrinal + Linsitinib; first compound 8 µM): 1.08

SW 1573
relative viability (Salubrinal + Decitabine; first compound 0.08 µM): 0.697
relative viability (Salubrinal + Decitabine; first compound 0.253 µM): 0.372
relative viability (Salubrinal + Decitabine; first compound 0.8 µM): 0.609
relative viability (Salubrinal + Decitabine; first compound 2.53 µM): 0.488
relative viability (Salubrinal + Decitabine; first compound 8 µM): 0.555
relative viability ([1]; first compound 0.04 µM): 0.287
relative viability ([1]; first compound 0.1265 µM): 0.185
relative viability ([1]; first compound 0.4 µM): 0.204
relative viability ([1]; first compound 1.265 µM): 0.151
relative viability ([1]; first compound 4 µM): 0.106
relative viability (Salubrinal + Trametinib; first compound 0.08 µM): 0.789
relative viability (Salubrinal + Trametinib; first compound 0.253 µM): 0.615
relative viability (Salubrinal + Trametinib; first compound 0.8 µM): 0.588
relative viability (Salubrinal + Trametinib; first compound 2.53 µM): 0.485
relative viability (Salubrinal + Trametinib; first compound 8 µM): 0.469
relative viability (Salubrinal + Linsitinib; first compound 0.08 µM): 0.903
relative viability (Salubrinal + Linsitinib; first compound 0.253 µM): 0.759
relative viability (Salubrinal + Linsitinib; first compound 0.8 µM): 0.718
relative viability (Salubrinal + Linsitinib; first compound 2.53 µM): 0.792
relative viability (Salubrinal + Linsitinib; first compound 8 µM): 0.844
